According to PMC3523097 (Journal of medicinal chemistry, 2012):
pIC50: −log10 of the molar value. Values joined by “and” are separate entries in the source; they are usually repeats but may differ in a detail not shown here. Identical values can stand only once. “Also recorded” adds a separate entry of the source. Like-named read-outs stand apart in the source and are kept apart here. Non-standard residues stand in square brackets, D forms with d. Residues, ends and D or L forms follow the SMILES beside them. Dmt = Cc1cc(O)cc(C)c1C[C@H](N)C(=O)O; dCit = NC(=O)NCCC[C@@H](N)C(=O)O; Nle = CCCC[C@H](N)C(=O)O

Legend:
[1] = system: mouse tissues (spleen, liver, lungs, heart, kidneys, serum); experiment: In vivo tissue biodistribution of [125I]-peptides; settings: for Serum levels: 15 min after administration, rank in words
[2] = system: mouse brain (blood-brain barrier); experiment: Blood-to-brain influx, multiple time regression of [125I]-peptides; settings: for Vbr (brain distribution volume): [125I]-labelled, CD-1 mice, mean ± SEM
[3] = target: T1, MOR (Rattus norvegicus, UniProt P33535); experiment: MOR receptor binding, displacement of [3H]DAMGO from rat brain membranes; settings: ratio of MOR/DOR/KOR Ki
[4] = system: CD-1 mice; experiment: Antinociception after i.p. administration, 55 °C tail withdrawal; type: in vivo, mouse; settings: for Time of maximum antinociceptive activity post i.p. injection: mice; for Antinociceptive effect after i.p. injection, in words: Figure 3; for Antinociceptive activity, times higher than the antinociception of morphine: at the plateau decline phase
[5] = system: CD-1 mice; experiment: Antinociception after s.c. administration, radiant heat tail-flick test; type: in vivo; settings: mouse tail-flick test; for ED50 (95% confidence limits): at the time of peak effect
[6] = incubated in sheep blood; cited from earlier work
[7] = target: T1, MOR; settings: ratio of MOR/DOR/KOR Ki; cited from earlier work
[8] = system: MOR (guinea pig ileum, GPI); settings: read-out: GPI (μ) IC50; cited from earlier work
[9] = system: DOR (mouse vas deferens, MVD); settings: read-out: MVD (δ) IC50; cited from earlier work
[10] = system: DOR (mouse vas deferens, MVD); experiment: Mouse vas deferens; type: biochemical
[11] = cited from earlier work
[12] = system: MOR (guinea pig ileum, GPI); experiment: Guinea pig ileum; type: biochemical

T1 sequence (P33535 whole entry): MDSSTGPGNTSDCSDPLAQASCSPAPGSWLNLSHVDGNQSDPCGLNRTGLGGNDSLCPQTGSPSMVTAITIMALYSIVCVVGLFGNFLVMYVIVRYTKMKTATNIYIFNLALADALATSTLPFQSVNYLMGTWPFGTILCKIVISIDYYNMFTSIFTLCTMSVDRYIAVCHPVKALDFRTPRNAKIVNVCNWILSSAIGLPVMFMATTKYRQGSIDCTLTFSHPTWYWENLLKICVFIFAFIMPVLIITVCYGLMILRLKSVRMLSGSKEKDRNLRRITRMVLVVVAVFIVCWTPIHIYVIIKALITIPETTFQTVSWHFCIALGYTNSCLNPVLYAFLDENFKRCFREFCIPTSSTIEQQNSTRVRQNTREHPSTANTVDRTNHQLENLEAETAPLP

| Molecule | Serum levels [1] | Vbr (brain distribution volume) [2] [µL/g] | Ki ratio μ/δ/κ [3] | Duration of antinociceptive action [5] [h] | Time of peak effect [5] | ED50 (95% confidence limits) [5] | also measured |
| --- | --- | --- | --- | --- | --- | --- | --- |
| CCCC[C@H](NC(=O)[C@H](Cc1ccccc1)NC(=O)[C@@H](CCCN=C(N)N)NC(=O)[C@@H](N)Cc1c(C)cc(O)cc1C)C(N)=O [Peptide 9, H-Dmt-D-Arg-Phe-Nle-NH2] (H-[Dmt][dR]F[Nle]-NH2) | lowest | 27.43 ± 4.80 | – | – | – | – | – |
| CCCC[C@@H](C(N)=O)N(C)C(=O)[C@H](Cc1ccccc1)NC(=O)[C@@H](CCCNC(=N)N)NC(=O)[C@@H](N)Cc1c(C)cc(O)cc1C [Peptide 13, H-Dmt-D-Arg-Phe-NMeNle-NH2] | – | – | 1/62/55 | – | – | – | – |
| Cc1cc(O)cc(C)c1C[C@H](N)C(=O)N[C@H](CCCNC(=N)N)C(=O)N[C@@H](Cc1ccccc1)C(=O)N[C@@H](CCCCN)C(N)=O [Peptide 1, H-Dmt-D-Arg-Phe-Lys-NH2, reference compound] | highest | 19.25 ± 1.02 | – | 6 to 7 | 2 h | 0.15 (0.07-0.32) μmol/kg | Time of maximum antinociceptive activity post i.p. injection [4]: 60 min; Duration of antinociceptive action ([5]; listed as [Dmt^1]-DALDA): > 7 h; t1/2 in sheep blood [6]: 108 min |
| CN1CC[C@]23c4c5ccc(O)c4O[C@H]2[C@@H](O)C=C[C@H]3[C@H]1C5 [Morphine, reference compound] | – | – | – | – | – | – | Relative potency to Morphine ([5]; from ED50): 1 |
| Cc1cc(O)cc(C)c1C[C@H](N)C(=O)N[C@H](CCCNC(=N)N)C(=O)N[C@H]1Cc2ccccc2CN(CC(N)=O)C1=O [Peptide 20, H-Dmt-D-Arg-Aba-Gly-NH2, reference compound] | intermediate | 24.01 ± 3.41 | – | 6 to 7 | 1 h | 0.47 (0.18-1.2) μmol/kg | Tissue distribution (percentage of mass-corrected injected dose), in words ([1]; [125I]-peptide, mice, Figure 2): higher kidney uptake; Antinociceptive effect after i.p. injection, in words [4]: slow and shallow antinociceptive response; Ki ratio μ/δ/κ [7]: 1/4/787; pIC50 [8]: 9.49; pIC50 [9]: 9.38 |
| Cc1cc(O)cc(C)c1C[C@H](N)C(=O)N[C@H](CCCNC(N)=O)C(=O)N[C@@H](Cc1ccccc1)C(=O)N(C)[C@@H](CCCCN)C(N)=O [Peptide 14, H-Dmt-D-Cit-Phe-NMeLys-NH2] | intermediate | 17.13 ± 2.36 | 1/42/12 | 2 to 3 | 1 h | 0.16 (0.07-0.36) μmol/kg | Antinociceptive activity, times higher than the antinociception of morphine [4]: 13 - 15; Time of maximum antinociceptive activity post i.p. injection [4]: 60 to 90 min |
| Cc1cc(O)cc(C)c1C[C@H](N)C(=O)N[C@H](CCCNC(=N)N)C(=O)N[C@H]1Cc2ccccc2CN([C@@H](CCCCN)C(N)=O)C1=O [Peptide 16, H-Dmt-D-Arg-Aba-Lys-NH2] | – | – | – | – | – | – | MVD (δ) IC25 ([10]; IC25 given instead of IC50): 64 (IC25) nM |
| CCCC[C@@H](C(N)=O)N1Cc2ccccc2C[C@H](NC(=O)[C@@H](CCCNC(=N)N)NC(=O)[C@@H](N)Cc2c(C)cc(O)cc2C)C1=O [Peptide 17, H-Dmt-D-Arg-Aba-Nle-NH2] | – | – | 1/17/3 | – | – | – | – |
| Cc1cc(O)cc(C)c1C[C@H](N)C(=O)N[C@H](CCCNC(N)=O)C(=O)N[C@@H](Cc1ccccc1)C(=O)N[C@@H](CCCCN)C(N)=O [Peptide 10, H-Dmt-D-Cit-Phe-Lys-NH2] | intermediate | 27.12 ± 3.76 | 1/88/37 | 2 to 3 | 1 h | 0.23 (0.10-0.55) μmol/kg | Time of maximum antinociceptive activity post i.p. injection [4]: 45 min |
| C[C@@H](NC(=O)[C@@H](N)Cc1ccc(O)cc1)C(=O)N[C@@H](Cc1ccccc1)C(=O)NCC(=O)N[C@@H](Cc1ccc(O)cc1)C(=O)N1CCC[C@H]1C(=O)N[C@@H](CO)C(N)=O [dermorphin, Tyr-D-Ala-Phe-Gly-Tyr-Pro-Ser-NH2, reference compound] | – | – | – | – | – | – | Antinociceptive effect after i.p. injection, in words [4]: inability of dermorphin to induce a significant antinociceptive effect; mean influx transfer constant (mean Kin) ([2]; I-125 labelled control, over 15 minutes for dermorphin): 0.173 ± 0.137 µL/g/min |
| CCCC[C@H](NC(=O)[C@H](Cc1ccccc1)NC(=O)[C@@H](CCCNC(=N)N)NC(=O)[C@@H](N)Cc1c(C)cc(O)cc1C)C(N)=O [Peptide 9, H-Dmt-D-Arg-Phe-Nle-NH2] (H-[Dmt][dR]F[Nle]-NH2) | – | – | 1/66/70 | – | – | >6 µmol/kg | Antinociceptive effect after i.p. injection, in words [4]: relatively low antinociceptive activity; Antinociceptive effect after s.c. administration, in words [5]: no dose-related antinociception; also recorded: failed to reach a 50% effect after s.c. administration of 6 μmol/kg |
| endomorphin-1 | – | – | – | – | – | – | t1/2 in mouse plasma [11]: 4 to 7 min |
| endomorphin-2 | – | – | – | – | – | – | t1/2 in mouse plasma [11]: 4 to 7 min |
| CCCC[C@@H](C(N)=O)N1Cc2ccccc2C[C@H](NC(=O)[C@@H](CCCNC(N)=O)NC(=O)[C@@H](N)Cc2c(C)cc(O)cc2C)C1=O [Peptide 19, H-Dmt-D-Cit-Aba-Nle-NH2] | – | – | 1/3/12 | – | – | – | GPI (μ) IC35 ([12]; IC35 given instead of IC50): 0.78 (IC35) nM; MOR functional profile ([12]; in words): MOR partial agonist; DOR functional profile ([10]; in words): DOR full agonist |
| Cc1cc(O)cc(C)c1C[C@H](N)C(=O)N[C@H](CCCNC(=N)N)C(=O)N[C@@H](Cc1ccccc1)C(=O)N(C)[C@@H](CCCCN)C(N)=O [Peptide 12, H-Dmt-D-Arg-Phe-NMeLys-NH2] | intermediate | 21.99 ± 2.81 | 1/1190/216 | > 7 | 1 to 4 h and 2 h | 0.13 (0.06-0.30) μmol/kg | Antinociceptive activity, times higher than the antinociception of morphine [4]: 13 - 15; Time of maximum antinociceptive activity post i.p. injection [4]: 60 to 90 min |
| CCCC[C@H](NC(=O)[C@H](Cc1ccccc1)NC(=O)[C@@H](CCCNC(N)=O)NC(=O)[C@@H](N)Cc1c(C)cc(O)cc1C)C(N)=O [Peptide 11, H-Dmt-D-Cit-Phe-Nle-NH2] (H-[Dmt][dCit]F[Nle]-NH2) | – | – | 1/5/125 | – | – | – | – |
